The values that follow come from patent publication US20120053220A1, “NOVEL LIPOXYGENASE INHIBITORS AS NEUROPROTECTIVE AGENTS” (The General Hospital Corporation d/b/a Massachusetts …, priority 2007, published 2012).

Experiment [1] in a line: antioxidant test: quenching of the stable free radical DPPH. The settings on record: 5 μM test compound, 500 μM DPPH, absorbance 517 nm; FIG. 1B. As to the method: The rate of reaction is proportional to the antioxidant potency of the test compounds. A known free radical scavenger, nordihydroguaiaretic acid (NDGA), was used as a positive control. 10 μL, of 1 mM testing reagents to achieve final concentrations of 5 μM were added to 2 mL of 500 μM DPPH stirring in a cuvette.

Another experiment deals with T1, 15-hLOX-1 (Homo sapiens, UniProt P16050).
T1 sequence (P16050 1-662): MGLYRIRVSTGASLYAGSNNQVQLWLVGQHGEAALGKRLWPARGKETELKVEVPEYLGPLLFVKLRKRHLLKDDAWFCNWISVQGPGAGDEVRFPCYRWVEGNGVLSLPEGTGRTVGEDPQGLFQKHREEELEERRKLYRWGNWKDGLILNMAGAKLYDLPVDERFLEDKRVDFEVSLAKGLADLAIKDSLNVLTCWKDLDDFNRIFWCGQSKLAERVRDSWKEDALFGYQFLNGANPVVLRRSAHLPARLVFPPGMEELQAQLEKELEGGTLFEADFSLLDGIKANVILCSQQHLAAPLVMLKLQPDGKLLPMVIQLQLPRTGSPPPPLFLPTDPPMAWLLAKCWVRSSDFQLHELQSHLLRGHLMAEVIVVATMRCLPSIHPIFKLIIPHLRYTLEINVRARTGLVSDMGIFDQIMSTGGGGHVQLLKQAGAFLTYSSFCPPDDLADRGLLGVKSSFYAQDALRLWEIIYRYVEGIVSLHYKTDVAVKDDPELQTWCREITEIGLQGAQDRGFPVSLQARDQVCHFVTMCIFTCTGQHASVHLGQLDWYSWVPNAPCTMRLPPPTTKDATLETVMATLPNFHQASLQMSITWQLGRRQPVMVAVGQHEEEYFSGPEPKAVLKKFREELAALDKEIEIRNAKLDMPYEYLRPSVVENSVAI
The settings on record: natural products known to inhibit 15-hLOX-1; read-out: IC50 against 15-hLOX-1; cited from earlier work.

On to `CC(Cc1ccc(O)c(O)c1)C(C)Cc1ccc(O)c(O)c1` (centres unmarked) [NDGA, nordihydroguaiaretic acid], for which, in experiment [1], the “antioxidant activity (quenching of DPPH radical)” value is given as “rapid quenching”.

The term IC50 denotes the midpoint of a concentration-inhibition curve. On to `C[C@H]1[C@H](C)CC[C@]2(C)CC[C@]3(C)C(=CC[C@@H]4[C@@]5(C)CC[C@@H](O)[C@](C)(C(=O)O)[C@@H]5CC[C@]43C)[C@H]12` [boswellic acid], for which the IC50 on 15-hLOX-1 is 1000 nM.
